# Measured values published in paper PMC9408991, “Antitumor Effects of a New Retinoate of the Fungal Cytotoxin Illudin M in Brain Tumor Models” (International Journal of Molecular Sciences, 2022).
# Experiments:
# [1] = tested on: non-neural cancer cell lines; assay: MTT assay, summary over non-neural cancer cell lines; assay type: cell-based, human; conditions: with the exception of MCF-7^+Topo
# Description: Non-GBM cells (5 × 10^4 cells/mL, 100 µL/well) were grown in 96-well plates for 24 h. Then, they were treated with various concentrations of the test compounds or vehicle (DMSO, or EtOH) for 72 h at 37 °C. After the addition of 12.5 µL of a 0.5% MTT solution in PBS, the cells were incubated for 3 h at 37 °C so that the water-soluble MTT could be converted to formazan crystals. Then, the plates were centrifuged (300× g, 5 min, 4 °C), the medium withdrawn, and the formazan dissolved in 25 µL of DMSO containing 10% sodium dodecylsulfate (SDS) and 0.6% acetic acid for at least 2 h at 37 °C. In the case of the HL60 cells, after 2 h, the precipitate of formazan crystals was redissolved in a 10% solution of SDS in DMSO containing 0.6% acetic acid.
# NE-4C neural stem cells = assay: Neuronal differentiation of NE-4C neural stem cells (β-tubulin III staining); assay type: cell-based, mouse
# Description: NE-4C cells and their differentiated progeny neurons can be immunohistochemically distinguished by the presence of β-tubulin III only in the latter (Figure 3).
# Astroglia cells grown on poly-L-lysine-coated glass cover slips were fixed with 4% paraformaldehyde in PBS for 20 min at room temperature and then permeabilized with Triton X-100 (0.1% v/v in PBS; 5 min). Nonspecific antibodies were blocked by incubation with 3% FBS in PBS (room temperature, 1 h). α-GFAP antibody (rabbit, DAKO) was used in a dilution of 1:2000 and was visualized by anti-rabbit IgG Alexa 594 (1:1000). DAPI (4′,6-diamidino-2-phenylindole) was used for nuclei staining. Fluorescence images were captured manually on a Zeiss Axiovert 200 M microscope fitted with 20- to 60-fold zoom and a Zeiss AxioCam MRm digital camera. Further applied antibodies were tubulin III (Sigma T5076), used at a dilution of 1:1000, and Annexin V. Cy3.18 (Sigma A4963).
# embryonal neuronal cells = assay: Long-term development of embryonal neuronal cell cultures; assay type: cell-based, mouse; conditions: 1 µM, 3, 6 or 8 days
# Description: NE-4C cells derived from the anterior brain vesicles of p53-deficient 9-day-old mouse embryos were maintained in Minimum Essential Medium (MEM; Sigma Aldrich, Taufkirchen, Germany) supplemented with 5% fetal calf serum (FCS; Invitrogen-Gibco, Carlsbad, CA, USA), 4 mM glutamine (Sigma-Aldrich, Taufkirchen, Germany) and 40 ug/mL gentamycin (Chinoin, Budapest, Hungary). For maintenance, subconfluent cultures were regularly split by trypsinization (0.05 w/v% trypsin in PBS) into poly-L-lysine-coated Petri dishes. Primary astrocytes were isolated from whole brains of neonatal (P0-P3) mice, as described earlier. In brief, meninges were removed, and the tissue pieces were subjected to enzymatic dissociation, using 0.05% w/v trypsin and 0.05% w/v DNase for 10 min at room temperature. The cells were plated onto poly-L-lysine coated plastic surfaces and grown in MEM supplemented with 10% fetal calf serum, 4 mM glutamine and 40 ug/mL gentamycin. Primary neuronal cultures were prepared from embryonic (E15–E16) mouse (CD1) forebrains, as described earlier. In brief, cell suspensions were prepared by mechanical dissociation over a nylon mesh with a pore diameter of 40–42 μm. The cells were seeded at 10^5 cells/cm^2 density onto PLL-coated surfaces. The cultures were maintained in MEM supplemented with 5% FCS, 4 mM glutamine, 40 µg/mL gentamicin and 2.5 μg/mL amphotericin B (Sigma). […]
compound,measurement,setting,value
"CC1=C(/C=C/C(C)=C/C=C/C(C)=C/C(=O)O[C@@H]2C3=C(C)C4(CC4)[C@@](C)(O)C(=O)C3=CC2(C)C)C(C)(C)CCC1 [Compound 2, illudin M retinoate]",fold less efficacious than 1,[1],100 fold
same,differentiation of NE-4C stem cells to neurons,"NE-4C neural stem cells; 10 nM, β-tubulin III staining",did not elicit differentiation
same,neuronal differentiation of NE-4C neural stem cells,NE-4C neural stem cells; concentrations as high as 1 µM,did not induce neuronal differentiation
same,development of neuronal cells,embryonal neuronal cells,developed normally
